# Where two headings read alike, the source gives them in different places.
# Legend:
# hACC2 = hACC2 (Homo sapiens, UniProt O00763); assay: In vitro ACC2 inhibition assay (ADP-Glo), human ACC2; assay type: biochemical
# Experimental: (§1) An exemplary procedure for the in vitro ACC inhibition assay, which can be used to determine the inhibitory action of compounds of the invention toward either human (hACC2) or fungal (fACC2) ACC2, follows. The ADP-Glo™ Kinase Assay kit from Promega was used. The ADP-Glo™ Kinase Assay is a luminescent ADP detection assay to measure enzymatic activity by quantifying the amount of ADP produced during an enzyme reaction. The assay is performed in two steps; first, after the enzyme reaction, an equal volume of ADP-Glo™ Reagent is added to terminate the reaction and deplete the remaining ATP. Second, the Kinase Detection Reagent is added to simultaneously convert ADP to ATP and allow the newly synthesized ATP to be measured using a luciferase/luciferin reaction. Luminescence can be correlated to ADP concentrations by using an ATP-to-ADP conversion curve. The detailed procedure is as follows. 50 μL of the compound being tested (600 μM in DMSO) was added to a 384-well dilution plate. The compound was diluted 1:3 in succession in DMSO for each row for 11 wells. 0.5 μL ACC2 working solution was added to 384-well white Optiplate assay plate. 0.5 μL diluted compound solution in each column from step 2 was added to assay plate, each row containing 2 replicates. For the last 2 rows, 0.5 μL negative control (DMSO) was added in one row and 0.5 μL positive control (compound I-97) in the other. The plates were incubated at room temperature for 15 minutes. 5 μL substrate working solution was added to each well to initiate reaction. Final ACC2 reaction concentrations consist of: 5 nM ACC2, 20 μM ATP, 20 μM acetyl-CoA, 12 mM NaHCO3, 0.01% Brij35, 2 mM DTT, 5% DMSO, test compound concentrations: 30 μM, 10 μM, 3.33 μM, 1.11 μM, 0.37 μM, 0.123 μM, 0.0411 μM, 0.0137 μM, 0.00457 μM, 0.00152 μM, and 0.00051 μM. Plates were incubated at room temperature for 60 minutes. 10 μL ADP glo reagent was added. Plates were incubated at room temperature for 40 minutes. 20 μL kinase detection reagent was added. Plates were incubated at room temperature for 40 minutes, and then read on a Perkin Elmer EnVision 2104 plate reader for luminescence as Relative Light Units (RLU).
# (§2) Data for each concentration, as well as the positive and negative controls, were averaged, and the standard deviation calculated. Percent inhibition was calculated by the formula: 100×(average negative control−compound)/(average negative control−average positive control). The IC50 for each compound was calculated by fitting the data with a non-linear regression equation: Y=Bottom+(Top−Bottom)/(1+10^((Log IC50−X)*HillSlope)), where X is the log of compound concentration and Y is percent inhibition.
# fACC2 = fACC2 (UniProt Q00955); assay: In vitro ACC2 inhibition assay (ADP-Glo), fungal ACC2; assay type: biochemical
# Chain of fACC2 (Q00955 whole entry): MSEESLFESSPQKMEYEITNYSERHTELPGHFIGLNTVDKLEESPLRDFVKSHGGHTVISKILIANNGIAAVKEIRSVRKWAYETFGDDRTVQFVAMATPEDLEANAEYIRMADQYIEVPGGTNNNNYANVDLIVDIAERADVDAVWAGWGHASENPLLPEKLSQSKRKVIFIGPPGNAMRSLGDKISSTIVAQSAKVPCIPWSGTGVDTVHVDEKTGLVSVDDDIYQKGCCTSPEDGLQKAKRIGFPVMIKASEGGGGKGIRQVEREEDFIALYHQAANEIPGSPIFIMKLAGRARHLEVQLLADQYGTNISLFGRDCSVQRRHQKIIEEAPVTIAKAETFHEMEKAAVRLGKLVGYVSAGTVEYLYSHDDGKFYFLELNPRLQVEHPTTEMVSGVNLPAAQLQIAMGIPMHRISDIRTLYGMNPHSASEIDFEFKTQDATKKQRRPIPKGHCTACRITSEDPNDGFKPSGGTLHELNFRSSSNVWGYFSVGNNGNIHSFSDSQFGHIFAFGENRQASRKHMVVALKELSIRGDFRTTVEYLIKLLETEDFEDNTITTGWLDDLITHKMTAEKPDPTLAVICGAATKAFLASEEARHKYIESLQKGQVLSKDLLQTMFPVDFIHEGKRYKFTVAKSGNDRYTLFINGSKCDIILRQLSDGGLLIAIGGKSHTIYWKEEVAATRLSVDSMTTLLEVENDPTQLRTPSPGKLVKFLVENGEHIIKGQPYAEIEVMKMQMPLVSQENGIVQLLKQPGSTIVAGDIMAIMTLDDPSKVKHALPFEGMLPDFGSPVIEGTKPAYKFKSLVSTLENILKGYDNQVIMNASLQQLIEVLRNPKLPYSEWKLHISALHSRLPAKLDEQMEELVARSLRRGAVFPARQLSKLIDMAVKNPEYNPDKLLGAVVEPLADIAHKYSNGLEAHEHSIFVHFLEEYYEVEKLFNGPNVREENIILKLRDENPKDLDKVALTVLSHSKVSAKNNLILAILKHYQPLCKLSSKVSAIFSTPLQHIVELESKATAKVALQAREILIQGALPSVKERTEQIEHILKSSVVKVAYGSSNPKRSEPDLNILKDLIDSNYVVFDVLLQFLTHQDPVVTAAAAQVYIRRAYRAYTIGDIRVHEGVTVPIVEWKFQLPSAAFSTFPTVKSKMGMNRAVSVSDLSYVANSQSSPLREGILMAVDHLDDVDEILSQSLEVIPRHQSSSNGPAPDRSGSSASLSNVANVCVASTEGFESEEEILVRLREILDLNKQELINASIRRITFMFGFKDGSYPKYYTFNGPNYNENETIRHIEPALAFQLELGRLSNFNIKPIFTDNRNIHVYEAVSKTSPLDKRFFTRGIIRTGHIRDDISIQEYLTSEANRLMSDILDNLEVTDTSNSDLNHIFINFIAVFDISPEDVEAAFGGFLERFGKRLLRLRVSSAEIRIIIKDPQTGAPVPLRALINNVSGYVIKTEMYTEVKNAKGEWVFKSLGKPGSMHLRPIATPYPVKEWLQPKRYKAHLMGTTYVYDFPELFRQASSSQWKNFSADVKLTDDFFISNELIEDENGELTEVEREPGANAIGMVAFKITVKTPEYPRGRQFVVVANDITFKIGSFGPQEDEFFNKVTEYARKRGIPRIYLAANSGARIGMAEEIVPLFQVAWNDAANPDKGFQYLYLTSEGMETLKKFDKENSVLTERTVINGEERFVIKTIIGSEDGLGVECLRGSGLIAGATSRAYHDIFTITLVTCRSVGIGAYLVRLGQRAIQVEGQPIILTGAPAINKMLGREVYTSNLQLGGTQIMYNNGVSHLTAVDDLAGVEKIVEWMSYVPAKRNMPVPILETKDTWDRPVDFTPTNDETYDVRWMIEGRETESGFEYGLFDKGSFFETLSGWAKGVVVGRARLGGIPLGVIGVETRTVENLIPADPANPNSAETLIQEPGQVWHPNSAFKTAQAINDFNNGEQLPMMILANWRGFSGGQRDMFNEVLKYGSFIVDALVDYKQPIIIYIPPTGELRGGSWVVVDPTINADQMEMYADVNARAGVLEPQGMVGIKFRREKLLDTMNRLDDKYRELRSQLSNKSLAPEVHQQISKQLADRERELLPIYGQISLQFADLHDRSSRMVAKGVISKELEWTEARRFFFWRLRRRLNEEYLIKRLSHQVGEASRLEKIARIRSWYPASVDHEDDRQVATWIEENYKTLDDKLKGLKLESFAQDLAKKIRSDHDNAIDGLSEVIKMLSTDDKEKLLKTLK
# Experimental: as §1, §2
# [1] = system: Fusarium virguliforme (Fv); assay: Growth inhibition assay of fungal pathogens; assay type: cell-based; details: 48 h, Table 4b, read-out: Concentration at 90% Inhibition Fv
# Experimental: (§3) Compounds of the present invention were evaluated in a growth inhibition assay to determine the ability to control the growth of fungal pathogens, such as Botrtyis cinerea (Bc), Collectotrichum graminicola (Cg), Diplodia maydis (Dm), Fusarium moniliforme (Fm), Fusarium virguhforme (Fv), Phytophthora capsici (Pc), Rhizoctonia solani (Rs), and Septoria tritici (St). Compounds to be tested were dissolved in DMSO at 2.5 mg/ml to produce compound stock solutions (“stocks”). Stocks were diluted with DMSO by a five-fold dilution in a 96-well stock plate, and two sets of final concentrations of 50, 10, and 2 ppm or 2, 0.4, and 0.08 ppm were obtained in vitro. A set of positive controls was also prepared, with various concentrations of Soraphen (2, 0.4, and 0.08 ppm), Metalaxyl (1.1, 0.22, and 0.04 ppm), and Metconazole (2, 0.4, and 0.08 ppm or 0.2, 0.04, and 0.008 ppm) after the five-fold dilutions. Negative controls on each plate included 2% DMSO, water, and a blank (media+2% DMSO). Fungal spores were isolated from previously sub-cultured plates of Botrtyis cinerea (Bc), Collectotrichum graminicola (Cg), Diplodia maydis (Dm), Fusarium moniliforme (Fm), Fusarium virguliforme (Fv), Phytophthora capsici (Pc), and Septoria tritici (St). The isolated spores were diluted to individual concentrations with a 17% V8 liquid media. For Rhizoctonia solani (Rs) and Pythium irregulare, 1.5 mm mycelial plugs were used in place of spores and ¼ Potato Dextrose Broth (PDB) was used for dilution. The spore concentrations and plug sizes were based on growth curves generated at 48 hours for each pathogen. In a second 96-well plate, the spores or mycelial plugs, media, diluted compound solutions, and controls were combined. Once the compound was added, a true final concentration of compound in each well was measured by an OD600 reading, which adjusted for any compound precipitation that might have occurred in the well. Plate readings were repeated at both 24 and 48 hours. The blank negative control was used as a background subtraction. Additional visual ratings were performed at both 24 and 48 hours for checking on precipitation and confirming efficacy. Visual and OD600 ratings of the compounds at 48 hours were compared to the 2% DMSO negative control, and the percent of pathogen growth inhibition was determined based on those values.
# [2] = system: Collectotrichum graminicola (Cg); assay: Growth inhibition assay of fungal pathogens; assay type: cell-based; details: 48 h, Table 4b, read-out: Concentration at 90% Inhibition Cg
# Experimental: as §3
# [3] = system: Fusarium moniliforme (Fm); assay: Growth inhibition assay of fungal pathogens; assay type: cell-based; details: Fusarium verticillioides, 48 h, read-out: Concentration at 90% Inhibition Fm
# Experimental: as §3
# [4] = system: Phytophthora capsici (Pc); assay: Growth inhibition assay of fungal pathogens; assay type: cell-based; details: 48 h, Table 4b, read-out: Concentration at 90% Inhibition Pc
# Experimental: as §3
# Botrtyis cinerea (Bc) = assay: Growth inhibition assay of fungal pathogens; assay type: cell-based; details: 48 h, Table 4b, read-out: Concentration at 90% Inhibition Bc
# Experimental: as §3
# Septoria tritici (St) = assay: Growth inhibition assay of fungal pathogens; assay type: cell-based; details: Zymoseptoria tritici, 48 h, Table 4b, read-out: Concentration at 90% Inhibition St
# Experimental: as §3
# Diplodia maydis (Dm) = assay: Growth inhibition assay of fungal pathogens; assay type: cell-based; details: Stenocarpella maydis, 48 h, Table 4b, read-out: Concentration at 90% Inhibition Dm
# Experimental: as §3
# Rhizoctonia solani (Rs) = assay: Growth inhibition assay of fungal pathogens; assay type: cell-based; details: 48 h, Table 4b, read-out: Concentration at 90% Inhibition Rs
# Experimental: as §3
# C. krusei ATCC 6258 = assay: Anti-Fungal (Candida) Activity Assay, broth microtiter MIC; assay type: cell-based, Candida krusei; details: Pichia kudriavzevii, ATCC6258, 48 h, 3 replicates, MIC read at 48 h
# Experimental: (§4) Compounds of the present invention were evaluated in an Anti-Fungal Activity Assay. An exemplary procedure for the assay, which measures the susceptibility of various Candida species to anti-fungal compounds, follows. Compounds to be tested (including fluconazole and amphotericin B) were dissolved in DMSO to obtain a solution having a concentration of 1 mg/mL. These stock solutions were sterile filtered using a 0.22 um nylon syringe filter, then diluted in sterile water to achieve a final concentration of 128 μg/mL.
# (§5) All species were grown from frozen stock by directly plating on to freshly prepared Sabouraud Dextrose agar (BD, Difco) and incubated overnight in ambient air at 35° C. for 24 h. A direct suspension was prepared in RPMI 1640+MOPS (Lonza, Biowhittaker) by taking individual colonies from the overnight cultures using sterile swabs soaked in sterile saline. The concentration of the suspension was determined using pre-determined standard curves. These suspensions were then diluted down to 5×10^3 CFU/mL to achieve a final concentration of 2.5×10^3 CFU/mL once added to the microtiter plate as per CLSI guidelines (M27-A3, Vol. 28 No. 14).
# (§6) Broth microtiter MIC challenge plates were prepared following CLSI guidelines (M27-A3, Vol. 28 No. 14). The original CLSI guidelines focused on reading Candida MICs after 48 h of incubation. As reading after only 24 h offers a clear advantage of patient care, QC limits are being established for all drugs at 24 h. That being said there are no known interpretive breakpoints for amphotericin B at 24 h and the current fluconazole interpretive breakpoints are based on a 48 h reading. The MIC for the test compounds were recorded at 48 h. All MIC determinations were achieved by visually comparing the growth found in the antibiotic challenged wells to that of the growth control.
# [5] = system: C. parapsilosis ATCC 22019; assay: as above; assay type: cell-based; details: Lodderomyces parapsilosis, ATCC22019, 48 h, 3 replicates, MIC read at 48 h
# Experimental: as §4, §5, §6
# C. albicans ATCC 90028 = assay: as above; assay type: cell-based; details: ATCC90028, 48 h, 3 replicates, MIC read at 48 h
# Experimental: as §4, §5, §6
# ACC2 = details: enzyme isolated from rat, mouse, monkey and human; cited from earlier work
# ACC1 = details: enzyme isolated from rat, mouse, monkey and human; cited from earlier work
# Chain of hACC2 (O00763 whole entry): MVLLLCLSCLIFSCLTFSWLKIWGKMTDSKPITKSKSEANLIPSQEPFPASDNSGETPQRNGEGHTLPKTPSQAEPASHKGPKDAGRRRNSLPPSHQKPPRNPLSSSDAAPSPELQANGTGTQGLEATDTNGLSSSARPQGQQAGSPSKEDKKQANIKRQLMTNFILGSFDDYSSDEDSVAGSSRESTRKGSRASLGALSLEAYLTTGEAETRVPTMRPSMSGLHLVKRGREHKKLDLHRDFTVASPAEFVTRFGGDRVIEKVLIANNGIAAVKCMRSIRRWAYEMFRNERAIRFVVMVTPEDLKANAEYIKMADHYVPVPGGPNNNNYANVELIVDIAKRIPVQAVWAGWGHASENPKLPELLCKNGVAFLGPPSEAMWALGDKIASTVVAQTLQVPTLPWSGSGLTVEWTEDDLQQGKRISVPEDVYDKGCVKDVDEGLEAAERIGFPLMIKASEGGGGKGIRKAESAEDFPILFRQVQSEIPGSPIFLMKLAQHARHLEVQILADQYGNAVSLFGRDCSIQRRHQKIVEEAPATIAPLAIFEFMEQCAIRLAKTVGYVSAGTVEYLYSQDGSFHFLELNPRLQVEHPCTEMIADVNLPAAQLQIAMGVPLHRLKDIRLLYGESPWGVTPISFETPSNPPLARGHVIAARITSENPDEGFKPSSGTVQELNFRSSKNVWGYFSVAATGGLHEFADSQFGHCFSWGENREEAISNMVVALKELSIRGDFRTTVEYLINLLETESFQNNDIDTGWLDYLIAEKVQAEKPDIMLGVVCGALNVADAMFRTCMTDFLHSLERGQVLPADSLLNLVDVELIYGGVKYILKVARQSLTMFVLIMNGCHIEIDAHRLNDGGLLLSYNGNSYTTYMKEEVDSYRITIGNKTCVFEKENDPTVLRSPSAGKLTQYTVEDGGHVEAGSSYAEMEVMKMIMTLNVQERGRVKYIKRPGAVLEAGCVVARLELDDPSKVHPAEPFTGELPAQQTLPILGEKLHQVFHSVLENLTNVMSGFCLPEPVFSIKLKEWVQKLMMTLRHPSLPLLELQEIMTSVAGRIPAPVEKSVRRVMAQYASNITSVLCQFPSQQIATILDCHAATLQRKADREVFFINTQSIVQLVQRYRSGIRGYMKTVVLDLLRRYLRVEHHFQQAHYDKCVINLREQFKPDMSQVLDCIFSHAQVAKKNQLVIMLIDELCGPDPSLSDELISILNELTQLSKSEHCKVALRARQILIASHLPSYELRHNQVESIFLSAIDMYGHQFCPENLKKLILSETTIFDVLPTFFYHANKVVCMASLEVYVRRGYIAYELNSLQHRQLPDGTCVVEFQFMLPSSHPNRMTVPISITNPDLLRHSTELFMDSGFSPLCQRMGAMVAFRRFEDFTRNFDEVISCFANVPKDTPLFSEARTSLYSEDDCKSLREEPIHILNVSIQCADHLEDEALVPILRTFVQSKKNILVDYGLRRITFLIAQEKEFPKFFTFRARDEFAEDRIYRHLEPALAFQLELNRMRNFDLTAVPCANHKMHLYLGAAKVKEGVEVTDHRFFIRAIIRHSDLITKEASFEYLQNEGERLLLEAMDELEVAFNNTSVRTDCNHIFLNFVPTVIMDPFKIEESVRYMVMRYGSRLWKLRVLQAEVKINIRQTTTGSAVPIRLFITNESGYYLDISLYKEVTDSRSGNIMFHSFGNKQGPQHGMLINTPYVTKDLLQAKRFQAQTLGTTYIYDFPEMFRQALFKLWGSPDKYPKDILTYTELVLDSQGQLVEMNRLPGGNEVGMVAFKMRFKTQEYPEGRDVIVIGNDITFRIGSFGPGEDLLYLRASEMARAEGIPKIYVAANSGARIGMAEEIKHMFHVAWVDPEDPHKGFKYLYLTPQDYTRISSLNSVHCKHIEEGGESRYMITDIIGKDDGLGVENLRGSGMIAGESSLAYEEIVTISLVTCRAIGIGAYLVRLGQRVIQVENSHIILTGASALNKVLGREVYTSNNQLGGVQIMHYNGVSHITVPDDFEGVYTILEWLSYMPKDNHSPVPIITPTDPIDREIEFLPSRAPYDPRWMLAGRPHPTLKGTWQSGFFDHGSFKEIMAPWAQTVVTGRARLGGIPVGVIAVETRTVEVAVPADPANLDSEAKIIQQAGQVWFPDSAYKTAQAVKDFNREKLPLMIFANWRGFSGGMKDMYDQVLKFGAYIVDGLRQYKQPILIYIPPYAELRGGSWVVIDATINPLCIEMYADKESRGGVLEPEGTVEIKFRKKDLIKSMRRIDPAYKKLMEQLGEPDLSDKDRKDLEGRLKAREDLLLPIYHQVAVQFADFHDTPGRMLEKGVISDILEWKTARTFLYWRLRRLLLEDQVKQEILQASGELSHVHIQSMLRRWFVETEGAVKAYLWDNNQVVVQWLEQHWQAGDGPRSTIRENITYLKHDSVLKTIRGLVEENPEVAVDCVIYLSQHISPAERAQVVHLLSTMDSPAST
structure (smiles),measurement,setting,value
"CCOC(=O)c1sc2c(c1C)c(=O)n(C(C)(C)C(=O)NC(C)C)c(=O)n2CCc1cc(F)ccc1OCCC#N [Compound I-45, ethyl 1-(2-(2-cyanoethoxy)-5-fluorophenethyl)-3-(1-(isopropylamino)-2-methyl-1-oxopropan-2-yl)-5-methyl-2,4-dioxo-1,2,3,4-tetrahydro-thieno[2,3-d]pyrimidine-6-carboxylate]",IC50,hACC2; Table 2b (additional results),≥ 40 nM
same,IC50,fACC2; Table 2b (additional results),3 to 10 nM
same,IC90,[1],2 µg/mL
same,IC90,[2],≥ 50 µg/mL
same,IC90,[3]; Table 4b,2 µg/mL
same,IC90,[4],≥ 50 µg/mL
same,IC90,Botrtyis cinerea (Bc),10 µg/mL
same,IC90,Septoria tritici (St),≥ 50 µg/mL
same,IC90,Diplodia maydis (Dm),≥ 50 µg/mL
same,IC90,Rhizoctonia solani (Rs),≥ 50 µg/mL
"CCNC(=O)C(C)(C)n1c(=O)c2c(C)c(C(=O)OCC)sc2n(C[C@H](OC2CCOCC2)c2ccccc2OC)c1=O [Compound I-1, ethyl (R)-3-(1-(ethylamino)-2-methyl-1-oxopropan-2-yl)-1-(2-(2-methoxyphenyl)-2-((tetrahydro-2H-pyran-4-yl)oxy)ethyl)-5-methyl-2,4-dioxo-1,2,3,4-tetrahydrothieno[2,3-d]pyrimidine-6-carboxylate]",MIC,C. krusei ATCC 6258; Table 3a,0.25 to 1 µg/mL
same,MIC,C. krusei ATCC 6258; Table 3b (additional results),2.1 to 4 µg/mL
same,IC50,hACC2; Table 2a,3 to 10 nM
same,IC50,hACC2; Table 2b (additional results),3 to 10 nM
same,IC50,fACC2; Table 2a,0.6 to 3 nM
same,IC50,fACC2; Table 2b (additional results),0.3 to 3 nM
same,MIC,[5]; Table 3a,1.1 to 2 µg/mL
same,MIC,[5]; Table 3b (additional results),2.1 to 4 µg/mL
same,MIC,C. albicans ATCC 90028; Table 3a,0.25 to 1 µg/mL
same,MIC,C. albicans ATCC 90028; Table 3b (additional results),0.25 to 1 µg/mL
same,IC90,[3]; Table 4a,≥ 50 µg/mL
same,IC90,[3]; Table 4b,≥ 50 µg/mL
"CCOC(=O)c1sc2c(c1C)c(=O)n([C@H](C)C(=O)N(C)C(C)C)c(=O)n2C[C@H](OCCO)c1cc(F)ccc1OC [Compound I-30, ethyl 1-((R)-2-(5-fluoro-2-methoxyphenyl)-2-(2-hydroxy-ethoxy)ethyl)-3-((R)-1-(isopropyl(methyl)amino)-1-oxopropan-2-yl)-5-methyl-2,4-dioxo-1,2,3,4-tetrahydrothieno[2,3-d]pyrimidine-6-carboxylate]",MIC,C. krusei ATCC 6258; Table 3b (additional results),0.25 to 1 µg/mL
same,IC50,hACC2; Table 2b (additional results),10 to 40 nM
same,IC50,fACC2; Table 2b (additional results),0.3 to 3 nM
same,MIC,[5]; Table 3b (additional results),0.25 to 1 µg/mL
same,MIC,C. albicans ATCC 90028; Table 3b (additional results),1.1 to 2 µg/mL
O=C(c1c2ccccc2cc2ccccc12)N1CCC(N2CCC[C@@H](C(=O)N3CCOCC3)C2)CC1 [CP-640186],IC50,ACC2,~60 nM
same,IC50,ACC1,~60 nM

# Reference: US11098055B2, “Ester ACC inhibitors and uses thereof” (Gilead Apollo, LLC, priority 2015, dated 2021)
